Test results as given in paper PMC8279417 (Journal of Medicinal Chemistry, 2021).
Where two headings read alike, the source gives them in different places.

Key:
ERβ [1] = molecular target: T1, ERβ (Homo sapiens, UniProt Q92731); conditions: for IC50: read-out: TR-FRET ERβ IC50, displacement of fluorescent-labeled E2 from the LBD of ERβ; for RBA ERβ: relative binding affinity compared to E2 (100%)
Target sequence in this assay (Q92731 264-498 limits assumed): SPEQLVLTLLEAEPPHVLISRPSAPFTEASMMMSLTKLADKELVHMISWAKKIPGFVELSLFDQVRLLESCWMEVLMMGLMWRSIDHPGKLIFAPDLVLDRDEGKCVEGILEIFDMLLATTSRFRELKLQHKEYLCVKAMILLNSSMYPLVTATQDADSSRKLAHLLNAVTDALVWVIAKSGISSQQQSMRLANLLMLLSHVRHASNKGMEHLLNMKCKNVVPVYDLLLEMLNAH
Protocol: (§1) LanthaScreen TR-FRET ER alpha/beta competitive binding assays (Invitrogen, Carlsbad) were used to investigate the binding affinity to the isolated receptors according to the manufacturer′s protocols. Measurement was performed with an Enspire multimode plate reader (PerkinElmer Life Sciences, Waltham). Calculations were performed with Excel (Microsoft, Redmond) and GraphPad Prism (GraphPad Software, San Diego).

ERα [2] = molecular target: T2, ERα (Homo sapiens, UniProt P03372); conditions: for IC50: read-out: TR-FRET ERα IC50, displacement of fluorescent-labeled E2 from the LBD of ERα; for RBA ERα: relative binding affinity compared to E2 (100%)
T2 sequence (P03372 311-547 limits assumed): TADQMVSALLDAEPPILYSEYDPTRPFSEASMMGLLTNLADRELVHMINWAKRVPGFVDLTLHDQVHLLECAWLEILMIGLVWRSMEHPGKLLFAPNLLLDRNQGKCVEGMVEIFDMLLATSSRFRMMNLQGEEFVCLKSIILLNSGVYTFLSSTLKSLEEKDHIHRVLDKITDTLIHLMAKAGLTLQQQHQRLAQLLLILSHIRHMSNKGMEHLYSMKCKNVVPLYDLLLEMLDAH
Protocol: as §1

ERα [3] = molecular target: T3, ERα (Homo sapiens, UniProt P03372); experiment: Luciferase reporter gene assay (transactivation), U2OS cells transfected with pSG5-ERα; assay type: cell-based; conditions: inhibition of E2-induced (0.03 nM) transactivation
T3 sequence (P03372 1-595): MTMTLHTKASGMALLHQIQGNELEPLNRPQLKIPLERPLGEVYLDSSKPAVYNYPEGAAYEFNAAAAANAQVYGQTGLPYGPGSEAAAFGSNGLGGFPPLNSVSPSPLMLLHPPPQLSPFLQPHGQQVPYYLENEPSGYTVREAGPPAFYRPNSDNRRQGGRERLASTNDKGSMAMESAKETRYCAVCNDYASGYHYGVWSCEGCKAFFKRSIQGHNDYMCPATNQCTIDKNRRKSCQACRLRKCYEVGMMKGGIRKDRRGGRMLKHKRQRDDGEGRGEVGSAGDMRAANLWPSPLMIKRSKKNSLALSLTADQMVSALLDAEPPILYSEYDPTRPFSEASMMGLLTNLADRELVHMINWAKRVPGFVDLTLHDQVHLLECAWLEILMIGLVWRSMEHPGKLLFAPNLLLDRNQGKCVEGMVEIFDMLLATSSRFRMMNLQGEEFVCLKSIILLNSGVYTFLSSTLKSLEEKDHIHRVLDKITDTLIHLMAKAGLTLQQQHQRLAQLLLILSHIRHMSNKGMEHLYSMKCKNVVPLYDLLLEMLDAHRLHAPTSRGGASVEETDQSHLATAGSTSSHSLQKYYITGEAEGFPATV

ERα [4] = molecular target: T3, ERα; experiment: In-Cell Western immunoassay, ERα levels in MCF-7 cells; assay type: cell-based; conditions: for % ERα remaining [1 μM]: MCF-7 cells, 24 h, compared to the solvent control (DMSO)
Protocol: Degradation was evaluated with the CellTagTM 700 In-Cell Western kit (LI-COR, Lincoln) according to the manufacturer’s protocol. MCF-7 cells were treated, and calculation was performed as previously described.[24]

ERβ [5] = molecular target: T1, ERβ; experiment: Luciferase reporter gene assay (transactivation), U2OS cells transfected with pSG5-ERβ; assay type: cell-based; conditions: inhibition of E2-induced (0.3 nM) transactivation
Target sequence in this assay (Q92731 whole entry, the tested form may be a part): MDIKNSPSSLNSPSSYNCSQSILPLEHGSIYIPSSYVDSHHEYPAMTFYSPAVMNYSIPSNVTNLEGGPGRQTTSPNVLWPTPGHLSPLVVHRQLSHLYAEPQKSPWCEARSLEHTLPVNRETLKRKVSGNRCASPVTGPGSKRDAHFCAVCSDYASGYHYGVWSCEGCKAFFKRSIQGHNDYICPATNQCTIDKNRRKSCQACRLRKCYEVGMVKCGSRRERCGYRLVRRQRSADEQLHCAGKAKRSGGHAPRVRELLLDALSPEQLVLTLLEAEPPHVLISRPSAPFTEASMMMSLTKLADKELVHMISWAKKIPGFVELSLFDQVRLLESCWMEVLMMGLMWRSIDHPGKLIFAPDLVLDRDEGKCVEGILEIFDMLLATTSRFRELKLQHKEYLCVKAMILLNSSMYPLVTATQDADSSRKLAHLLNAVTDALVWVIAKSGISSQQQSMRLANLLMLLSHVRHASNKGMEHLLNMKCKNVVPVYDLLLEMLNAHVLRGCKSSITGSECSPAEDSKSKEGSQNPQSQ

ERα [6] = molecular target: T2, ERα; experiment: TR-FRET coactivator (PGC-1 peptide) recruitment assay, ERα LBD; assay type: biochemical; conditions: E2 4 nM; for IC50: read-out: inhibition of coactivator recruitment IC50, ERα
Protocol: drug concentrations: 5 nM to 3 μM) after an incubation time of 10 or 30 min.
Coactivator recruitment was tested using the LanthaScreen® TR-FRET ERα coactivator assay. The binding
of the fluorescein-labeled PGC1a coactivator peptide to the ERα LBD protein labeled with terbium was

ERβ [7] = molecular target: T1, ERβ; conditions: E2 34 nM, incubation time 30 min; for IC50: read-out: inhibition of coactivator recruitment IC50, ERβ
Target sequence in this assay (Q92731 whole entry, the tested form may be a part): as above

MCF-7TamR cells = experiment: Crystal violet assay, MCF-7TamR cells; assay type: cell-based
MDA-MB-231 cells = experiment: Crystal violet assay, MDA-MB-231 cells; assay type: cell-based
MCF-7 cells = experiment: Crystal violet assay, MCF-7 cells; assay type: cell-based; conditions: for time to cytocidal effects, MCF-7: time-dependent experiment
[8] = MCF7, read-out: % efficacy [1 μM], downregulation of ERα compared to fulvestrant (100%), MCF-7, 1 μM

Structure (SMILES) | IC50 (ERβ [1]) | RBA ERβ (ERβ [1]) | IC50 (ERα [2]) | RBA ERα (ERα [2]) | IC50 (ERα [3]) | IC50 (ERβ [5]) | % ERα remaining [1 μM] (ERα [4]) | also measured
CCC(=C(c1ccc(O)cc1)c1ccc(/C=C/C(=O)NCCCNC(=O)c2ccc(N3CCN(C(=O)CCCCCCCn4c(=S)[nH]c5ccccc5c4=O)CC3)cc2)cc1)c1ccccc1 (mixture of isomers) [Compound 18] | 6.81 ± 1.86 nM | 10.9% | 4.23 ± 1.12 nM | 7.8% | 914 ± 50 nM | 157 ± 22 nM |  | Emax at 1 µM (ERα [4]; [8]): 64%
CCC(=C(c1ccc(O)cc1)c1ccc(/C=C/C(=O)NCCNC(=O)CCc2nc3cc(OC)ccc3[nH]2)cc1)c1ccccc1 (mixture of isomers) [Compound 31, (E)-3-[4-((E/Z)-1-(4-Hydroxyphenyl)-2-phenylbut-1-enyl)phenyl]-N-[2-(3-(5-methoxy-1H-benzo[d]imidazol-2-yl)propanamido)ethyl]acrylamide] | 4.88 ± 2.65 nM | 15.2% |  | 12% |  | 6.7 ± 2.7 nM | 113.8 ± 4.3% | 
CCC(=C(c1ccc(O)cc1)c1ccc(/C=C/C(=O)NCCCNC(=O)CCc2nc3ccc(OC)cc3[nH]2)cc1)c1ccccc1 (mixture of isomers) [Compound 32, (E)-3-[4-((E/Z)-1-(4-Hydroxyphenyl)-2-phenylbut-1-enyl)phenyl]-N-[3-(3-(5-methoxy-1H-benzo[d]imidazol-2-yl)propanamido)propyl]acrylamide] | 3.01 ± 4 nM | 24.7% | 4.11 ± 1.88 nM | 8% | 21.5 ± 10.7 nM | 26.9 ± 5.7 nM | 120.3 ± 31.6% | 
CCC(=C(c1ccc(O)cc1)c1ccc(/C=C/C(=O)NCCCCNC(=O)CCc2nc3cc(OC)ccc3[nH]2)cc1)c1ccccc1 (mixture of isomers) [Compound 34, (E)-3-[4-((E/Z)-1-(4-Hydroxyphenyl)-2-phenylbut-1-enyl)phenyl]-N-[4-(3-(5-methoxy-1H-benzo[d]imidazol-2-yl)propanamido)butyl]acrylamide] |  |  | 2.22 ± 0.76 nM | 14.9% | 34.5 ± 3.5 nM |  | 132.9 ± 14.1% | 
CCC(=C(c1ccc(O)cc1)c1ccc(/C=C/C(=O)NCCCCCNC(=O)CCc2nc3ccc(OC)cc3[nH]2)cc1)c1ccccc1 (mixture of isomers) [Compound 36, (E)-3-[4-((E/Z)-1-(4-Hydroxyphenyl)-2-phenylbut-1-enyl)phenyl]-N-[5-(3-(5-methoxy-1H-benzo[d]imidazol-2-yl)propanamido)pentyl]acrylamide] | 7.84 ± 0.25 nM | 9.5% | 1.56 ± 0.63 nM | 21.1% | 9.2 ± 3.2 nM | 8.9 ± 4 nM | 130.0 ± 15.1% | IC50 (ERα [6]; incubation time 10 min): 36.3 nM; IC50 (ERα [6]; incubation time 30 min): 153 nM; IC50 (ERβ [7]): 154 nM
CCC(=C(c1ccc(O)cc1)c1ccc(/C=C/C(=O)NCCCCCCNC(=O)CCc2nc3cc(OC)ccc3[nH]2)cc1)c1ccccc1 (mixture of isomers) [Compound 38, (E)-3-[4-((E/Z)-1-(4-Hydroxyphenyl)-2-phenylbut-1-enyl)phenyl]-N-[6-(3-(5-methoxy-1H-benzo[d]imidazol-2-yl)propanamido)hexyl]acrylamide] | 5.22 ± 0.65 nM | 14.3% | 2.61 ± 2.25 nM | 12.6% | 9.4 ± 2.7 nM | 9 ± 3.3 nM | 101.8 ± 1.9% | T/Ccorr MCF-7TamR (MCF-7TamR cells): about 40%
CCC(=C(c1ccc(O)cc1)c1ccc(/C=C/C(=O)NCCNC(=O)CCc2nc3cc(O)ccc3[nH]2)cc1)c1ccccc1 (mixture of isomers) [Compound 39, (E)-N-[2-(3-(5-Hydroxy-1H-benzo[d]imidazol-2-yl)propanamido)ethyl]-3-[4-((E/Z)-1-(4-hydroxyphenyl)-2-phenylbut-1-enyl)phenyl]acrylamide] |  |  | 1.45 ± 0.37 nM | 22.8% | 26 ± 6.6 nM |  | 99.2 ± 3.5% | Emax at 1 µM (ERα [4]; [8]): 1%
CCC(=C(c1ccc(O)cc1)c1ccc(/C=C/C(=O)NCCCNC(=O)CCc2nc3cc(O)ccc3[nH]2)cc1)c1ccccc1 (mixture of isomers) [Compound 40, (E)-N-[3-(3-(5-Hydroxy-1H-benzo[d]imidazol-2-yl)propanamido)propyl]-3-[4-((E/Z)-1-(4-hydroxyphenyl)-2-phenylbut-1-enyl)phenyl]acrylamide] | 3.78 ± 1.54 nM | 19.7% |  |  |  | 18.7 ± 8.3 nM |  | 
CCC(=C(c1ccc(O)cc1)c1ccc(/C=C/C(=O)NCCCCNC(=O)CCc2nc3cc(O)ccc3[nH]2)cc1)c1ccccc1 (mixture of isomers) [Compound 41, (E)-N-[4-(3-(5-Hydroxy-1H-benzo[d]imidazol-2-yl)propanamido)butyl]-3-[4-((E/Z)-1-(4-hydroxyphenyl)-2-phenylbut-1-enyl)phenyl]acrylamide] | 2.84 ± 1.31 nM | 26.2% |  |  |  | 15.9 ± 1.7 nM |  | 
CCC(=C(c1ccc(O)cc1)c1ccc(/C=C/C(=O)NCCCCCNC(=O)CCc2nc3cc(O)ccc3[nH]2)cc1)c1ccccc1 (mixture of isomers) [Compound 42, (E)-N-[5-(3-(5-Hydroxy-1H-benzo[d]imidazol-2-yl)propanamido)pentyl]-3-[4-((E/Z)-1-(4-hydroxyphenyl)-2-phenylbut-1-enyl)phenyl]acrylamide] | 3.81 ± 2.35 nM | 19.5% | 1.28 ± 0.58 nM | 25.7% | 30.9 ± 8.7 nM | 46.5 ± 20.7 nM | 92.0 ± 5.5% | IC50 (ERα [6]; incubation time 10 min): 23.3 nM; Emax at 1 µM (ERα [4]; [8]): 8%; IC50 (ERβ [7]): 64 nM
CCC(=C(c1ccc(O)cc1)c1ccc(/C=C/C(=O)NCCCCCCNC(=O)CCc2nc3cc(O)ccc3[nH]2)cc1)c1ccccc1 (mixture of isomers) [Compound 43, (E)-N-[6-(3-(5-Hydroxy-1H-benzo[d]imidazol-2-yl)propanamido)hexyl]-3-[4-((E/Z)-1-(4-hydroxyphenyl)-2-phenylbut-1-enyl)phenyl]acrylamide] | 7.8 ± 2.3 nM | 9.5% |  |  |  | 16.1 ± 7 nM |  | 
CCC(=C(c1ccc(O)cc1)c1ccc(/C=C/C(=O)O)cc1)c1ccccc1 (mixture of isomers) [GW7604, (E/Z)-3-(4-((E)-1-(4-Hydroxyphenyl)-2-phenylbut-1-enyl)phenyl)acrylic acid, reference compound] |  | 27.1% |  |  |  |  | 44.3 ± 12.1% | T/Ccorr MCF-7TamR (MCF-7TamR cells): 68%; reduction of PGC-1 binding at ERα (ERα [6]; 1 μM, after 10 min of incubation): completely reduced; coactivator binding (ERα [6]; 5 μM, after 30 min, ERα): 45%; Emax at 1 µM (ERα [4]; MCF7, read-out: % efficacy [1 μM]): 56%; repression of PGC1 binding at ERβ (ERβ [7]; 3 μM): complete repression
CC/C(=C(\c1ccc(O)cc1)c1ccc(OCCN(C)C)cc1)c1ccccc1 [4-OHT, (Z)-4-hydroxytamoxifen] |  |  |  |  |  |  |  | T/Ccorr MCF-7TamR (MCF-7TamR cells; 10 μM, 120 h): −57%; T/Ccorr MDA-MB-231 (MDA-MB-231 cells; 10 μM, 120 h): 10%; time to cytocidal effects, MDA-MB-231 (MDA-MB-231 cells; 20 μM, time-dependent experiment): 24 h; T/Ccorr MCF-7 (MCF-7 cells; 10 μM, 120 h): −55%; time to cytocidal effects, MCF-7 (MCF-7 cells; 10 μM): 48 h; time to cytocidal effects, MCF-7 (MCF-7 cells; 20 μM): 24 h
C[C@]12CC[C@@H]3c4ccc(O)cc4C[C@@H](CCCCCCCCC[S+]([O-])CCCC(F)(F)C(F)(F)F)[C@H]3[C@@H]1CC[C@@H]2O (stereo partly shown) [fulvestrant, reference compound] |  | 10.0% |  |  |  |  |  | 
